Test results as given in US20040033517A1, “Compositions and methods relating to endothelial cell signaling using the protease activated receptor (PAR1)” (priority 2002, published 2004).
Read-outs that look alike come from different tables or passages of the source. Ends that are not written are not given here.

Test system: human umbilical vein endothelial cells HUVEC-C
Type: cell-based
Text: Microarray Analysis. […] Total RNA was isolated followed by reverse transcription. Purified double stranded cDNA was in vitro transcribed in the presence of biotinylated dUTP and dCTP, fragmented cRNA was hybridized to the HG-U95Av2 array (Affymetrix, Santa Clara, Calif.), followed by staining with streptavidin-phycoerythrin. Arrays were scanned and analyzed using GeneChip3.1 software. […] An average fold-induction for the three independent experiments was obtained by calculating the means of the logarithm of the individual fold-increases for each agonist.

[1] = HUVEC-C, 90 min, genes represented in FIG. 2 A-C
[2] = HUVEC-C, 90 min, higher variability, PAR1 enhanced (<1.3 fold with PAR2 agonist)
[3] = HUVEC-C, 90 min, higher variability, PAR2 enhanced (<1.3 fold with PAR1 agonist)
[4] = HUVEC-C, 90 min, higher variability, genes not induced by APC (<1.3 fold with APC)

## SLIGRL [PAR2, SLIGRL]
  Average fold induction, BIRC3 U45878 HUMAN INHIBITOR OF APOPTOSIS PROTEIN (IAP) 1: 1.41 fold
  Average fold induction, NAB1 AF045451 NGFIA-BINDING PROTEIN: 1.38 fold
[1]
  Average Induction, A1288757 qm11h01.x1 Homo sapiens cDNA: 2.3 fold
  Average Induction, A1670788 tz10c02.x1 Homo sapiens cDNA: 1.4 fold
  Average Induction, A1985272 ws06b05.x1 Homo sapiens cDNA: 1.4 fold
  Average Induction, A8022718 Homo sapiens m.RNA for DEPP (decidual protein induced by progesterone): 2.0 fold
  Average Induction, AB004066 Homo sapiens mRNA for DEC1: 1.3 fold
  Average Induction, AB014569 Homo sapiens mRNA for K1AA0669 protein: 2.0 fold
  Average Induction, AF017786 Homo sapiens phosphatidic acid phosphohydrolase homolog (Dri42): 1.6 fold
  Average Induction, AF022375 Homo sapiens vascular endothelial growth factor mRNA: 1.3 fold
  Average Induction, AF039843 Homo sapiens Sprouty 2 (SPRY2) mRNA: 1.8 fold
  Average Induction, AF045451 Homo sapiens transcriptional regulatory protein p54: 1.4 fold
  Average Induction, AF050110 Homo sapiens TGFb inducible early protein and early growth response protein alpha genes: 1.4 fold
  Average Induction, AF054182 Homo sapiens mitochondrial processing peptidase beta-subunit mRNA: 1.3 fold
  Average Induction, AF068197 Homo sapiens BCE-1 mRNA: 1.8 fold
  Average Induction, AF078077 Homo sapiens growth arrest and DNA-damage-inducible protein GADD45beta: 1.3 fold
  Average Induction, AJ005821 Homo sapiens mRNA for X-like 1 protein: 1.6 fold
  Average Induction, AL023584 Human DNA sequence from clone 67K17 on chromosome 6q24.1-24.3.: 2.0 fold
  Average Induction, AL031432 Human DNA sequence from clone 465N24 on chromosome 1p35.1-36.13.: 2.6 fold
  Average Induction, AL050078 Homo sapiens mRNA; cDNA DKFZp566G0746: 1.6 fold
  Average Induction, AL096858 Novel human gene mapping to chomosome 1: 1.5 fold
  Average Induction, Cluster Incl M22489 Human bone morphogenetic protein 2A (BMP-2A): 2.9 fold
  Average Induction, Cluster Incl U12767 Human mitogen induced nuclear orphan receptor (MINOR): 3.4 fold
  Average Induction, D15050 Human mRNA for transcription factor AREB6: 1.7 fold
  Average Induction, D50917 Human mRNA for KIAA0127 gene: 1.3 fold
  Average Induction, D78579 Homo sapiens mRNA for neuron derived orphan receptor: 1.4 fold
  Average Induction, D86181 Homo sapiens DNA for galactocerebrosidase: 1.5 fold
  Average Induction, Guanine Nucleotide Exchange Factor 2: 1.4 fold
  Average Induction, J02931 Human placental tissue factor (two forms) mRNA: 2.7 fold
  Average Induction, J04076 Human early growth response 2 protein (EGR2) mRNA: 2.0 fold
  Average Induction, J04111 Human c-jun proto oncogene (JUN): 1.5 fold
  Average Induction, L05072 Homo sapiens interferon regulatory factor 1 gene: 2.0 fold
  Average Induction, L19871 Human activating transcription factor 3 (ATF3): 2.6 fold
  Average Induction, L43821 Homo sapiens enhancer of filamentation (HEF1) mRNA: 1.2 fold
  Average Induction, M22489/FEATURE Human bone morphogenetic protein 2A (BMP-2A): 3.2 fold
  Average Induction, M26683 Human interferon gamma treatment inducible mRNA: 1.0 fold
  Average Induction, M28211 Homo sapiens GTP-binding protein (RAB4) mRNA: 2.7 fold
  Average Induction, M28225 Human JE gene encoding a monocyte secretory protein [= MCP-1]: 1.1 fold
  Average Induction, M29039 Human transactivator (jun-B) gene: 2.8 fold
  Average Induction, M30474 Human kidney gamma-glutamyl transpeptidase type II mRNA: 2.1 fold
  Average Induction, M31516 Human decay-accelerating factor mRNA: 1.9 fold
  Average Induction, M36820 Human cytokine (GRO-beta) mRNA: 1.6 fold
  Average Induction, M59465 Human tumor necrosis factor alpha inducible protein A20 mRNA: 1.3 fold
  Average Induction, M60278 Human heparin-binding EGF-like growth factor mRNA: 3.9 fold
  Average Induction, M60721 Human homeobox gene: 3.7 fold
  Average Induction, M69043 Homo sapiens MAD-3 mRNA encoding 1kB-like activity: 1.4 fold
  Average Induction, M92843 H.sapiens zinc finger transcriptional regulator mRNA: 3.4 fold
  Average Induction, S81439 EGR alpha=early growth response gene alpha: 1.4 fold
  Average Induction, S81914 IEX-1=radiation-inducible immediate-early gene: 1.2 fold
  Average Induction, U04636 Human cyclooxygenase-2 (hCox-2) gene: 1.3 fold
  Average Induction, U07802 Human Tis1 1d gene: 1.6 fold
  Average Induction, U08015 Human NF-ATc mRNA: 2.0 fold
  Average Induction, U12767/FEATURE Human mitogen induced nuclear orphan receptor (MINOR): 3.3 fold
  Average Induction, U15932 Human dual-specificity protein phosphatase: 3.3 fold
  Average Induction, U25997 Homo sapiens stanniocalcin precursor (STC) mRNA: 1.4 fold
  Average Induction, U43142 Human vascular endothelial growth factor related protein VRP: 1.9 fold
  Average Induction, U59863 Human TRAF-interacting protein I-TRAF mRNA: 1.1 fold
  Average Induction, U75697 Human transcription regulator RPD3-2B mRNA: 2.6 fold
  Average Induction, U79259 Human clone 23945 mRNA: 1.7 fold
  Average Induction, U81607 Homo sapiens gravin mRNA: 1.3 fold
  Average Induction, W27545 32c4 Homo sapiens cDNA: 1.2 fold
  Average Induction, X51345 Human jun-B mRNA for JUN-B protein: 1.8 fold
  Average Induction, X63741 H.sapiens pilot mRNA: 3.0 fold
  Average Induction, X68277 H.sapiens CL 100 mRNA for protein tyrosine phosphatase: 2.8 fold
  Average Induction, X75918 H.sapiens mRNA for NOT: 3.3 fold
  Average Induction, X89066 H.sapiens mRNA for TRPC1 protein: 2.2 fold
  Average Induction, X94216 H.sapiens mRNA for VEGF-C protein: 2.1 fold
  Average Induction, Y00630 Human mRNA for Arg-Serpin (plasminogen activator-inhibitor 2, PAI-2): 1.7 fold
  Average Induction, Z25821 H.sapiens gene for mitochondrial dodecenoyl-CoA delta-isomerase: 1.7 fold
  Average Induction, Z48054 H.sapiens mRNA for peroxisomal targeting signal 1 (SKL type) receptor: 1.9 fold
HUVEC-C, 90 min, genes represented in FIG. 2 A-C, first probe set
  Average Induction, L13740 Human TR3 orphan receptor mRNA: 5.4 fold
HUVEC-C, 90 min, genes represented in FIG. 2 A-C, second probe set
  Average Induction, L13740 Human TR3 orphan receptor mRNA: 5.4 fold
[2]
  Average Induction, A1186701 qe82d12.x1 Homo sapiens cDNA: 1.1 fold
  Average Induction, A1953789 wx69d10.x1 Homo sapiens cDNA: 0.9 fold
  Average Induction, AF024710 Homo sapiens vascular endothelial growth factor (VEGF): 1.1 fold
  Average Induction, AL035297 H.sapiens gene from PAC 747L4: 1.0 fold
  Average Induction, M22299 Human T-plastin polypeptide mRNA: 1.2 fold
  Average Induction, U35735 Human RACH1 (RACH1) mRNA: 1.1 fold
  Average Induction, U87460 Human putative endothelin receptor type B-like protein mRNA: 0.9 fold
[3]
  Average Induction, A1038821 ox96d03.x1 Homo sapiens cDNA: 2.0 fold
  Average Induction, AC004475 Homo sapiens chromosome 19, cosmid F23858: 1.4 fold
  Average Induction, AL049354 Homo sapiens mRNA; cDNA DKFZp566E183: 1.3 fold
  Average Induction, L38696 Homo sapiens autoantigen p542 mRNA: 1.3 fold
  Average Induction, U27655 Human RGP3 mRNA: 1.5 fold
  Average Induction, U53831 Homo sapiens interferon regulatory factor 7B: 1.5 fold
  Average Induction, U58334 Human Bcl2, p53 binding protein Bbp/53BP2 (BBP/53BP2) mRNA: 1.5 fold
  Average Induction, U65093 Human msg1-related gene 1 (mrg1) mRNA: 1.7 fold
  Average Induction, W26851 17b12 Homo sapiens cDNA: 1.6 fold
  Average Induction, Y13115 Homo sapiens mRNA for serine/threonine protein kinase SAK: 1.6 fold
  Average Induction, Z25821 H.sapiens gene for mitochondrial dodecenoyl-CoA delta-isomerase: 1.7 fold
[4]
  Average Induction, AB028069 Homo sapiens mRNA for activator of S phase Kinase: 2.0 fold
  Average Induction, D38537 Human mRNA for protoporphyrinogen oxidase: 1.6 fold
  Average Induction, M83667 Human NF-IL6-beta protein: 1.3 fold
  Average Induction, U78082 Human RNA polymerase transcriptional regulation mediator (h-MED6) mRNA: 1.3 fold
  Average Induction, U85267 Homo sapiens down syndrome candidate region 1 (DSCR1) gene: 2.0 fold
